Broadly, the half-life is how long it takes for the measured level to halve. Lower therefore signals rapid decline. For orientation: IC50 means the concentration that gives 50% inhibition.

Bridge positions count the residues as written; N and C are the ends. Square brackets hold non-standard residues; d marks the D form. Peptide text beside a SMILES is read from it. S5 = C=CCCC[C@](C)(N)C(=O)O; Nle = CCCC[C@H](N)C(=O)O

Data on 5 compounds can be found in patent US20240124529A1, “ANTIVIRAL […]-[…]-CoV-2 PEPTIDES AND USES THEREOF” (Dana-Farber Cancer Institute, Inc., priority 2020, published 2024).

The target in one data set is Proteinase K (Parengyodontium album, UniProt P06873). Put plainly: in vitro. The following applies: pH 7.4.
Data set [1] is classed as physicochemical. The following applies: 25-50 μM peptide in 50 mM potassium phosphate (pH 7.5) or water.

Chain of Proteinase K (P06873 106-384): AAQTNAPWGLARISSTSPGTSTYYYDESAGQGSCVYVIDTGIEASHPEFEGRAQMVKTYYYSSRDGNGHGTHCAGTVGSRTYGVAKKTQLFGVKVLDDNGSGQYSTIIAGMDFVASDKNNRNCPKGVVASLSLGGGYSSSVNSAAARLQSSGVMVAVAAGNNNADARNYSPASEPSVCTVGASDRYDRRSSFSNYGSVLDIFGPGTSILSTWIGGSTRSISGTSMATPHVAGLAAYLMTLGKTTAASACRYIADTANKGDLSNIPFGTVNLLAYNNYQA

At Proteinase K, `CC[C@H](C)[C@H](NC(C)=O)C(=O)N[C@@H](CCC(N)=O)C(=O)N[C@@H](CCCCN)C(=O)N[C@@H](CCC(=O)O)C(=O)N[C@H](C(=O)N[C@@H](CC(=O)O)C(=O)N[C@@H](CCCNC(=N)N)C(=O)N[C@@H](CC(C)C)C(=O)N[C@@H](CC(N)=O)C(=O)N[C@@H](CCC(=O)O)C(=O)N[C@H](C(=O)N[C@@H](C)C(=O)N[C@@H](CCCCN)C(=O)N[C@@H](CC(N)=O)C(=O)N[C@@H](CC(C)C)C(=O)N[C@@H](CC(N)=O)C(=O)N[C@@H](CCC(=O)O)C(=O)N[C@@H](CO)C(=O)N[C@@H](CC(C)C)C(N)=O)C(C)C)[C@@H](C)CC` [SEQ ID NO:10, reference compound] came in with a half-life of 35 min.

With “SLDQINVTFLDLEYEMKKLEEAIKKLEESYIDLKEL [SEQ ID NO:110, reference compound]”, in data set [1], the “alpha-helical structure in solution by circular dichroism” value was “little to no alpha-helical structure”.

As to `CCCC[C@@H]1NC(=O)[C@H](CCC(=O)O)NC(=O)[C@H](Cc2ccc(O)cc2)NC(=O)[C@@](C)(NC(=O)[C@H](CC(C)C)NC(=O)[C@H](CC(=O)O)NC(=O)[C@H](CC(C)C)NC(=O)[C@H](Cc2ccccc2)NC(=O)[C@@H](NC(=O)[C@@H](NC(=O)[C@H](CC(N)=O)NC(=O)[C@@H](NC(=O)[C@H](CCC(N)=O)NC(=O)[C@H](CC(=O)O)NC(=O)[C@H](CC(C)C)NC(=O)[C@H](CO)NC(C)=O)[C@@H](C)CC)C(C)C)[C@@H](C)O)CCCC=CCCC[C@@](C)(C(=O)N[C@@H](CCCCN)C(=O)N[C@@H](CC(C)C)C(=O)N[C@@H](CCC(=O)O)C(=O)N[C@@H](CCC(=O)O)C(=O)N[C@@H](C)C(=O)N[C@H](C(=O)N[C@@]2(C)CCCC=CCCC[C@@](C)(C(=O)N[C@@H](CO)C(=O)N[C@@H](Cc3ccc(O)cc3)C(=O)N[C@H](C(=O)N[C@@H](CC(=O)O)C(=O)N[C@@H](CC(C)C)C(=O)N[C@@H](CCCCN)C(=O)N[C@@H](CCC(=O)O)C(N)=O)[C@@H](C)CC)NC(=O)[C@H](CCC(=O)O)NC(=O)[C@H](CC(C)C)NC(=O)[C@H](CCCCN)NC2=O)[C@@H](C)CC)NC1=O` [SEQ ID NO:177, SLDQINVTFLDLX1YEBX2KLEEAIX3KLEX4SYIDLKE] (Ac-SLDQINVTFLDL[S5]YE[Nle][S5]KLEEAI[S5]KLE[S5]SYIDLKE-NH2; staple 13-17, 24-28), on Proteinase K, the half-life is 840 min.

Turning to `CC[C@H](C)[C@H](NC(C)=O)C(=O)N[C@@H](CCC(N)=O)C(=O)N[C@@]1(C)CCCC=CCCC[C@@](C)(C(=O)N[C@@H](CC(C)C)C(=O)N[C@@H](CC(N)=O)C(=O)N[C@@H](CCC(=O)O)C(=O)N[C@H](C(=O)N[C@@H](C)C(=O)N[C@@H](CCCCN)C(=O)N[C@@]2(C)CCCC=CCCC[C@@](C)(C(=O)N[C@@H](CC(C)C)C(N)=O)NC(=O)[C@H](CCC(=O)O)NC(=O)[C@H](CC(N)=O)NC(=O)[C@H](CC(C)C)NC2=O)C(C)C)NC(=O)[C@H](CC(=O)O)NC(=O)[C@H]([C@@H](C)CC)NC(=O)[C@H](CCC(=O)O)NC1=O` [SEQ ID NO:52, IQX1EIDX2LNEVAKX3LNEX4L] (Ac-IQ[S5]EID[S5]LNEVAK[S5]LNE[S5]L-NH2; staple 3-7, 14-18), at Proteinase K, the half-life is more than 1000 min. Also, the IC50 in the data set on SARS-CoV-2 was less than 6 µM.

Consider `CC[C@H](C)[C@H](NC(=O)[C@H](Cc1ccc(O)cc1)NC(=O)[C@H](CCC(N)=O)NC(=O)[C@H](CCC(=O)O)NC(=O)[C@H](Cc1ccc(O)cc1)NC(=O)[C@H](CCCCN)NC(=O)CNC(=O)[C@H](CC(C)C)NC(=O)[C@H](CCC(=O)O)NC(=O)[C@H](CCC(N)=O)NC(=O)[C@H](CC(C)C)NC(=O)[C@H](CC(=O)O)NC(=O)[C@@H](NC(=O)[C@H](CC(C)C)NC(=O)[C@H](CO)NC(=O)[C@]1(C)CCCC=CCCC[C@](C)(NC(=O)[C@H](C)NC(=O)[C@@H](NC(=O)[C@H](CCC(=O)O)NC(=O)[C@H](CC(N)=O)NC(=O)[C@H](CC(C)C)NC(=O)[C@]2(C)CCCC=CCCC[C@](C)(NC(=O)[C@H](CCC(N)=O)NC(=O)[C@@H](NC(=O)[C@H](CC(N)=O)NC(=O)[C@@H](NC(=O)[C@@H](NC(=O)[C@H](CO)NC(=O)[C@H](C)NC(=O)[C@H](CC(N)=O)NC(=O)[C@@H](NC(=O)CNC(=O)[C@H](CO)NC(=O)[C@@H](NC(C)=O)[C@@H](C)CC)[C@@H](C)CC)C(C)C)C(C)C)[C@@H](C)CC)C(=O)N[C@@H](CCC(=O)O)C(=O)N[C@@H]([C@@H](C)CC)C(=O)N[C@@H](CC(=O)O)C(=O)N2)C(C)C)C(=O)N[C@@H](CC(N)=O)C(=O)N[C@@H](CC(C)C)C(=O)N[C@@H](CC(N)=O)C(=O)N1)[C@@H](C)CC)C(N)=O` [SEQ ID NO:158], for which, at Proteinase K, the half-life amounted to 33 min.
